# Laboratory results published in patent publication US20260092070A1, “INHIBITORS OF CANINE JANUS KINASE AND USES THEREOF” (ANIMOL DISCOVERY, INC., priority 2023, published 2026).
# Where two headings read alike, the source gives them in different places.
# What was measured:
# Human JAK-2 = Human JAK-2 (Homo sapiens, UniProt O60674); test: JAK enzymatic assay (Eurofins KinaseProfiler/IC50Profiler, radiometric), JAK-2; assay type: biochemical; conditions: human JAK-2 enzyme, 9 concentrations; read-out: JAK2 affinity (IC50) category
# Sequence of Human JAK-2 (O60674 whole entry): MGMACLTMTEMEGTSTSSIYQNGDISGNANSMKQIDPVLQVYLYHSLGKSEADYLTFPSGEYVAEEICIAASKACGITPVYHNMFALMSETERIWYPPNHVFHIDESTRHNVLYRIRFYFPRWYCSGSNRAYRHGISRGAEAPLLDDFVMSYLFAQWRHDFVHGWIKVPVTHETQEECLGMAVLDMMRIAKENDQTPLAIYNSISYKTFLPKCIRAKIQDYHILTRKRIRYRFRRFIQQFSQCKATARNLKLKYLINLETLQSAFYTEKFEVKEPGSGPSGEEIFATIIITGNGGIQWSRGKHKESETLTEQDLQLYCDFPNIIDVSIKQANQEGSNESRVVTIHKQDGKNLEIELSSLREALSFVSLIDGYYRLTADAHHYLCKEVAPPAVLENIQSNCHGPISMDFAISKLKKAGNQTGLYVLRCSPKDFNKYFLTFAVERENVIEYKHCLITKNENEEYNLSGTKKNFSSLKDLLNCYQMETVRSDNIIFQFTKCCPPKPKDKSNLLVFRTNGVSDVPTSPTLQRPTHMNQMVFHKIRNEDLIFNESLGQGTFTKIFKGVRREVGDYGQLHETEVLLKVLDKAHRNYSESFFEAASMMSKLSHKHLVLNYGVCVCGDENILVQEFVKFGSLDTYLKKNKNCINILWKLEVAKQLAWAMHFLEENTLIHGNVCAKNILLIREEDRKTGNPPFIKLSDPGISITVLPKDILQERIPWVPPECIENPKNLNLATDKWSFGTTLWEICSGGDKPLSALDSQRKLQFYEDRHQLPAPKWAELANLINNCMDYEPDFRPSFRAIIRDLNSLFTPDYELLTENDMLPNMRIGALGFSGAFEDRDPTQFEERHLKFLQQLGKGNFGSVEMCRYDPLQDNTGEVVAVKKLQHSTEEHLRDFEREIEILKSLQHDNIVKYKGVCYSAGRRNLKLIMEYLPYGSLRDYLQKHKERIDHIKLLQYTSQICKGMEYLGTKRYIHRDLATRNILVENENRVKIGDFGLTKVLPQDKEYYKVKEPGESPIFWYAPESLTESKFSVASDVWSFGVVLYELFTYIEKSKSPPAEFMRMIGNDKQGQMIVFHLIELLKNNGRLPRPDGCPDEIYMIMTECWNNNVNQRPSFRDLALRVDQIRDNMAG
# Protocol: (§1) All enzyme assays were conducted according to Eurofins Discovery's KinaseProfiler™ and IC50Profiler™ services.
# (SEQ ID NO: 2) peptide substrate, 10 mM magnesium acetate and [gamma-33P]-ATP (specific activity and concentration as required). The reaction was initiated by the addition of the Mg/ATP mix. After incubation for 40 minutes at room temperature, the reaction was stopped by the addition of phosphoric acid to a concentration of 0.5%. An aliquot of the reaction was then spotted onto a filter and washed four times for 4 minutes in 0.425% phosphoric acid and once with methanol prior to drying and scintillation counting.
# (§2) Data was then imported into an internal application where each data point was expressed as % inhibition based on uninhibited and no enzyme controls.
# Human JAK-3 = target: T1, Human JAK-3 (Homo sapiens, UniProt P52333); test: JAK enzymatic assay (Eurofins KinaseProfiler/IC50Profiler, radiometric), JAK-3; assay type: biochemical; conditions: human JAK-3 enzyme, 9 concentrations; read-out: JAK3 affinity (IC50) category
# T1 construct: purchased Eurofins Discovery (KinaseProfiler / IC50Profiler service)
# T1 sequence (P52333 1-1124): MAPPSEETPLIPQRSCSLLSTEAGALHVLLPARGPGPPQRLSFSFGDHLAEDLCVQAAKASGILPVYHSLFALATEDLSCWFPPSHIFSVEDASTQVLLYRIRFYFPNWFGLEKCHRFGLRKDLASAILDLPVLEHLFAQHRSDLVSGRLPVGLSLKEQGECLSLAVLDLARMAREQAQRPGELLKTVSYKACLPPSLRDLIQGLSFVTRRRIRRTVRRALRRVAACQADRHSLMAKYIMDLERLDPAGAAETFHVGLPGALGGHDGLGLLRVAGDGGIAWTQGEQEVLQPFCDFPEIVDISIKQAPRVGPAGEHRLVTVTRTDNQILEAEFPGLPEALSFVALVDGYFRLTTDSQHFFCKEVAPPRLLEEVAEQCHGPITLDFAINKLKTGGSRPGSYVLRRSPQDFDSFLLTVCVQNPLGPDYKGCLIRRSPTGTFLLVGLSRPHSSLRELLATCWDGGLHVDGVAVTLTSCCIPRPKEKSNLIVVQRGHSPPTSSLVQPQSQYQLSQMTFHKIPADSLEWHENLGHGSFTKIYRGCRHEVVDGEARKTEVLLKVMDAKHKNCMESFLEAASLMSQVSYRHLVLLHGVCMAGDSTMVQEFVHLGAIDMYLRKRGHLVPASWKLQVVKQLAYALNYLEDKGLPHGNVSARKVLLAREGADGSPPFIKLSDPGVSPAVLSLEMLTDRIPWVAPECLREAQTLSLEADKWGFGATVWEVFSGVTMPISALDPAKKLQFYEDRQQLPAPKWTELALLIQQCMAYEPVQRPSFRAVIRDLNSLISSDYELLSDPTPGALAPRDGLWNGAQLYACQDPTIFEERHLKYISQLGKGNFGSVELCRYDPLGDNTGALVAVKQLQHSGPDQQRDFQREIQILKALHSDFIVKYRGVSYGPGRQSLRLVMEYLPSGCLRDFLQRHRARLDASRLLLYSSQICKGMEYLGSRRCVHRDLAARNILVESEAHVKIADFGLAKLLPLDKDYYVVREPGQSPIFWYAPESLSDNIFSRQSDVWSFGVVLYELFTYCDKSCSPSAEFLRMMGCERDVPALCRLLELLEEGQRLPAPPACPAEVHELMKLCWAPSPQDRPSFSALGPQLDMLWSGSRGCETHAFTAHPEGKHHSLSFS
# Protocol: as §1
# (SEQ ID NO: 3) peptide substrate, 10 mM magnesium acetate and [gamma-33P]-ATP (specific activity and concentration as required). The reaction was initiated by the addition of the Mg/ATP mix. After incubation for 40 minutes at room temperature, the reaction was stopped by the addition of phosphoric acid to a concentration of 0.5%. An aliquot of the reaction was then spotted onto a filter and washed four times for 4 minutes in 0.425% phosphoric acid and once with methanol prior to drying and scintillation counting.
# as §2
# JAK-1 [1] = target: T2, JAK-1 (Homo sapiens, UniProt P23458); test: JAK enzymatic assay (Eurofins KinaseProfiler/IC50Profiler, radiometric), JAK-1; conditions: for JAK1/JAK2 selectivity: selectivity IC50 ratio for JAK1 versus JAK2, human enzymes
# Target sequence in this assay (P23458 whole entry): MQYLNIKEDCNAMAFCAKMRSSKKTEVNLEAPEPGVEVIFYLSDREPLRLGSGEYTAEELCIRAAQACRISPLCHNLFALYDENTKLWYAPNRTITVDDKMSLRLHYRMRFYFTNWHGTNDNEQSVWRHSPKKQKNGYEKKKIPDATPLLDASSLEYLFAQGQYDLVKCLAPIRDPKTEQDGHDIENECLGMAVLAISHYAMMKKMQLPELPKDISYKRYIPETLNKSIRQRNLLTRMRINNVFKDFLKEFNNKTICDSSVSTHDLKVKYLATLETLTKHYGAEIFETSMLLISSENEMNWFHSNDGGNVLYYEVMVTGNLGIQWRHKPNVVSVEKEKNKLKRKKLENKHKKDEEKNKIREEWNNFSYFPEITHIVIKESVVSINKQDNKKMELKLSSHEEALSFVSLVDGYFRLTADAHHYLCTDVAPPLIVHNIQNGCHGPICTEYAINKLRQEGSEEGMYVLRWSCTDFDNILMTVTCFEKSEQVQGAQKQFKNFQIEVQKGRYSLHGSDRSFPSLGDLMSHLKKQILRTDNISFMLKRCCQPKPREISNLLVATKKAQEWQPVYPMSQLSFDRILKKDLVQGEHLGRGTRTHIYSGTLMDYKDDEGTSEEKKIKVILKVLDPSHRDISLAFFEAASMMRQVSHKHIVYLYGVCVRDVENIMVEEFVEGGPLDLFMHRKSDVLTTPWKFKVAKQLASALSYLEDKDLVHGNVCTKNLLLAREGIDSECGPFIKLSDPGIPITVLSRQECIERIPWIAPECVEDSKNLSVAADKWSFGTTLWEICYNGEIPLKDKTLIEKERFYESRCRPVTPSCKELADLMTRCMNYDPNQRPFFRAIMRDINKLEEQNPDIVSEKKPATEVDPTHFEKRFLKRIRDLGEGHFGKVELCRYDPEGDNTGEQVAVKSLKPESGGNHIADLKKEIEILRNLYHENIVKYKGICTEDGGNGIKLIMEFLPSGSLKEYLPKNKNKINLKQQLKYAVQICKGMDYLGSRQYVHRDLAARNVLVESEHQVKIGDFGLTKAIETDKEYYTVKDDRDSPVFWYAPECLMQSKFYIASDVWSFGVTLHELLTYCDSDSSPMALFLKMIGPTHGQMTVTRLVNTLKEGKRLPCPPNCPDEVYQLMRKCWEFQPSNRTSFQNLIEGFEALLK
# Protocol: as §1
# (SEQ ID NO.: 1) peptide substrate, 10 mM magnesium acetate and [gamma-33P]-ATP (specific activity and concentration as required). The reaction was initiated by the addition of the Mg/ATP mix. After incubation for 40 minutes at room temperature, the reaction was stopped by the addition of phosphoric acid to a concentration of 0.5%. An aliquot of the reaction was then spotted onto a filter and washed four times for 4 minutes in 0.425% phosphoric acid and once with methanol prior to drying and scintillation counting. A known inhibitor, Staurosporine, was used as a positive control for the assay.
# Data was then imported into an internal application where each data point was expressed as % inhibition based on uninhibited and no enzyme controls. […] Inhibition values for the JAK enzymes (IC50 values) for each compound were stratified into four groups.
# Human TYK-2 = target: T3, Human TYK-2 (Homo sapiens, UniProt P29597); test: JAK enzymatic assay (Eurofins KinaseProfiler/IC50Profiler, radiometric), TYK-2; assay type: biochemical; conditions: human TYK-2 enzyme, 9 concentrations; read-out: TYK2 affinity (IC50) category
# T3 construct: purchased Eurofins Discovery (KinaseProfiler / IC50Profiler service)
# T3 sequence (P29597 whole entry): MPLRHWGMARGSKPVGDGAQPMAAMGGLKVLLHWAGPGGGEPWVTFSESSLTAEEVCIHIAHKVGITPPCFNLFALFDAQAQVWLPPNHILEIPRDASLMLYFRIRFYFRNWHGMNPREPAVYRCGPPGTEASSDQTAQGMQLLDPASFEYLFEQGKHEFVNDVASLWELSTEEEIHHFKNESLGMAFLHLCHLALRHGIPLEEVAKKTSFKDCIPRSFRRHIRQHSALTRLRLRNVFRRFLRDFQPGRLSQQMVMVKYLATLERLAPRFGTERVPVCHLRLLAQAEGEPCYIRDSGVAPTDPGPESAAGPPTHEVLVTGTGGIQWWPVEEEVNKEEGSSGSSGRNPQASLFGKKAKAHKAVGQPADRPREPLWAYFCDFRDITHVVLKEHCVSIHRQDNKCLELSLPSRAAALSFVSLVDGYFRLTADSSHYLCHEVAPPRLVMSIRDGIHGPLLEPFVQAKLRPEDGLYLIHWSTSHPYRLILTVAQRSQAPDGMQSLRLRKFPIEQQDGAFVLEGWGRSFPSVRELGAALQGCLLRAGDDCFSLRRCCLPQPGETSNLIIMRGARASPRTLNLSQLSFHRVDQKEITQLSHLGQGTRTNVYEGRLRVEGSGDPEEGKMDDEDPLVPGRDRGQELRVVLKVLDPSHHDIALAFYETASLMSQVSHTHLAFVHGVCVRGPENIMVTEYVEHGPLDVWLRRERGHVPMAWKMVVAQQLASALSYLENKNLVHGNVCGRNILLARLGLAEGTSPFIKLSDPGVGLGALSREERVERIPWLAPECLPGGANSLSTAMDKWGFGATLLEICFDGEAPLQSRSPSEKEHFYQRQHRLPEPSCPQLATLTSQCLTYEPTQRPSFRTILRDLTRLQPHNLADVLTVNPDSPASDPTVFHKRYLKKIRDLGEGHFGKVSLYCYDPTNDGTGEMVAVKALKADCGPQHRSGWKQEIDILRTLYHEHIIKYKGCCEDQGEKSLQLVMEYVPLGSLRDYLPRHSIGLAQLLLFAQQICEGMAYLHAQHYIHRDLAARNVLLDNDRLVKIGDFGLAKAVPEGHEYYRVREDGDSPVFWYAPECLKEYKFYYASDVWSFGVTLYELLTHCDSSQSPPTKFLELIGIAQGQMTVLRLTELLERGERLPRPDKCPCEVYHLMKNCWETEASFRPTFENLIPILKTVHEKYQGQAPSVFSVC
# Protocol: Human TYK-2 (Uniprot ID: P29597) was incubated with 8 mM MOPS pH 7.0, 0.2 mM EDTA, 250 μM […]
# [2] = system: JAK1-dependent cytokines (IL-2, IL-4, IL-6, IL-13, IL-31); conditions: IL-2, IL-4, IL-6, IL-13 and IL-31; Gonzales et al., 2014; read-out: IC50 for inhibiting the function of JAK1-dependent cytokines; cited from earlier work
# cJAK-1 = test: Selectivity of oclacitinib among canine JAK subtypes; assay type: biochemical
# JAK-1 [3] = target: T2, JAK-1; conditions: Gonzales et al., 2014; cited from earlier work
# Target sequence in this assay (P23458 whole entry, species assumed): as the sequence (P23458 whole entry) above
SMILES,IC50 (Human JAK-2) [nM],IC50 (Human JAK-3) [nM],IC50 (JAK-1 [1]) [nM],JAK1/JAK2 selectivity (JAK-1 [1]),IC50 (Human TYK-2) [nM],IC50 [2] [nM],"selectivity toward cJAK-2, cJAK-3, and cJAK-4 relative to cJAK-1 (cJAK-1)",IC50 (JAK-1 [3]) [nM]
"CC(C)(C)NS(=O)(=O)c1ccc(NC(=O)CN2CCN(c3ncnc4[nH]ccc34)CC2)cc1 [Compound 2, 2-(4-(7H-pyrrolo[2,3-d]pyrimidin-4-yl)piperazin-1-yl)-N-(4-(N-(tert-butyl)sulfamoyl)phenyl)acetamide]",> 1000,> 1000,< 250,25,> 1000,,,
"O=C(CN1CCN(c2ncnc3[nH]ccc23)CC1)Nc1ccc(S(=O)(=O)N2CCC2)cc1 [Compound 4, 2-(4-(7H-pyrrolo[2,3-d]pyrimidin-4-yl)piperazin-1-yl)-N-(4-(azetidin-1-ylsulfonyl)phenyl) acetamide]",> 1000,> 1000,250 to 500,24,> 1000,,,
"CN(C)S(=O)(=O)c1ccc(NC(=O)CN2CCN(c3ncnc4[nH]ccc34)CC2)cc1F [Compound 5, 2-(4-(7H-pyrrolo[2,3-d]pyrimidin-4-yl)piperazin-1-yl)-N-(4-(N,N-dimethylsulfamoyl)-3-fluorophenyl)acetamide]",> 1000,> 1000,250 to 500,,> 1000,,,
"O=C(CN1CCN(c2ncnc3[nH]ccc23)CC1)Nc1ccc(S(=O)(=O)NC2CC2)cc1 [Compound 7, 2-(4-(7H-pyrrolo[2,3-d]pyrimidin-4-yl)piperazin-1-yl)-N-(4-(N-cyclopropylsulfamoyl)phenyl)acetamide]",500 to 1000,> 1000,< 250,13,> 1000,,,
"CNS(=O)(=O)c1ccc(NC(=O)CN2CCN(c3ncnc4[nH]ccc34)CC2)cc1 [Compound 8, 2-(4-(7H-pyrrolo[2,3-d]pyrimidin-4-yl)piperazin-1-yl)-N-(4-(N-methylsulfamoyl)phenyl)acetamide]",500 to 1000,500 to 1000,< 250,7,> 1000,,,
"CNS(=O)(=O)c1ccc(NC(=O)CN2CCN(c3ncnc4[nH]ccc34)CC2)cc1F [Compound 9, 2-(4-(7H-pyrrolo[2,3-d]pyrimidin-4-yl)piperazin-1-yl)-N-(3-fluoro-4-(N-methylsulfamoyl)phenyl)acetamide]",500 to 1000,500 to 1000,< 250,12,500 to 1000,,,
"COCCN(C)S(=O)(=O)c1ccc(NC(=O)CN2CCN(c3ncnc4[nH]ccc34)CC2)cc1 [Compound 10, 2-(4-(7H-pyrrolo[2,3-d]pyrimidin-4-yl)piperazin-1-yl)-N-(4-(N-(2-methoxyethyl)-N-methylsulfamoyl)phenyl)acetamide]",> 1000,> 1000,250 to 500,15,> 1000,,,
"CCCCNS(=O)(=O)c1ccc(NC(=O)CN2CCN(c3ncnc4[nH]ccc34)CC2)cc1 [Compound 11, 2-(4-(7H-pyrrolo[2,3-d]pyrimidin-4-yl)piperazin-1-yl)-N-(4-(N-butylsulfamoyl)phenyl)acetamide]",> 1000,500 to 1000,< 250,9,> 1000,,,
"CCCNS(=O)(=O)c1ccc(NC(=O)CN2CCN(c3ncnc4[nH]ccc34)CC2)cc1 [Compound 12, 2-(4-(7H-pyrrolo[2,3-d]pyrimidin-4-yl)piperazin-1-yl)-N-(4-(N-propylsulfamoyl)phenyl)acetamide]",500 to 1000,500 to 1000,< 250,4,> 1000,,,
"CCNS(=O)(=O)c1ccc(NC(=O)CN2CCN(c3ncnc4[nH]ccc34)CC2)cc1 [Compound 13, 2-(4-(7H-pyrrolo[2,3-d]pyrimidin-4-yl)piperazin-1-yl)-N-(4-(N-ethylsulfamoyl)phenyl)acetamide]",> 1000,> 1000,< 250,13,> 1000,,,
"CNS(=O)(=O)c1ccc(N(C)C(=O)CN2CCN(c3ncnc4[nH]ccc34)CC2)cc1 [Compound 14, 2-(4-(7H-pyrrolo[2,3-d]pyrimidin-4-yl)piperazin-1-yl)-N-methyl-N-(4-(N-methylsulfamoyl)phenyl)acetamide]",> 1000,> 1000,250 to 500,17,> 1000,,,
"CC(C)NS(=O)(=O)c1ccc(NC(=O)C(C)N2CCN(c3ncnc4[nH]ccc34)CC2)cc1 (stereo not drawn) [Compound 17, 2-(4-(7H-pyrrolo[2,3-d]pyrimidin-4-yl)piperazin-1-yl)-N-(4-(N-isopropylsulfamoyl)phenyl)propenamide]",> 1000,> 1000,250 to 500,7,> 1000,,,
"CC(C)NS(=O)(=O)c1ccc(NC(=O)[C@@H](C)N2CCN(c3ncnc4[nH]ccc34)CC2)cc1 [Compound 18, (R)-2-(4-(7H-pyrrolo[2,3-d]pyrimidin-4-yl)piperazin-1-yl)-N-(4-(N-isopropylsulfamoyl)phenyl)propanamide]",< 250,500 to 1000,250 to 500,4,> 1000,,,
"CC(C(=O)Nc1ccc(S(=O)(=O)N2CCCCC2)cc1)N1CCN(c2ncnc3[nH]ccc23)CC1 (stereo not drawn) [Compound 20, 2-(4-(7H-pyrrolo[2,3-d]pyrimidin-4-yl)piperazin-1-yl)-N-(4-(piperidin-1-ylsulfonyl)phenyl)propenamide]",> 1000,> 1000,500 to 1000,2,500 to 1000,,,
"CNS(=O)(=O)C[C@H]1CC[C@H](N(C)c2ncnc3[nH]ccc23)CC1.O=C(O)/C=C\C(=O)O [Oclacitinib, N-methyl[trans-4-(methyl-7H-pyrrolo[2,3-d]pyrimidin-4-ylamino)cyclohexyl]methanesulfonamide (2Z)-2-butenedioate]",,,,,,36 to 249,relatively low,10
